Results on ten compounds are retold here after patent publication US4587045A, “Intermediates for preparing octapeptide vasopressin antagonists” (SmithKline Beckman Corporation, priority 1985, dated 1986).

*1 amine or outer side, *2 acyl side, *3 side chain or, on linkers, in order; H or OH if unused. Where a SMILES comes first, the peptide text is derived from it. Bridges are numbered along the chain shown (N, C = ends). Where no end group is shown, it is not given here. [ ]: non-standard residue; d: D form. The star is where a group is joined. X1 = O=C(CC1(S[*:2])CCCCC1)[*:1]; Abu = CC[C@H](N)C(=O)O; NHPr = CCCN*

Assay [1] has as its target vasopressin stimulated adenylate cyclase activity. Description: Assay of adenylate cyclase activity, kidney medullary membrane. Format: biochemical. The note with it: pig kidney medullary membrane, read-out: anti-ADH activity in vitro (Pig) Ki. How it is done: (§1) Details of the in vitro protocols are in F. L. Stassen et al., J. of Pharm. Exp. Ther. 233, 50-54 (1982) but the calculations of cyclase activity and binding potential at the receptor site are as follows:
Test Procedure for Assay of Adenylate Cyclase Activity:
In each experiment the amount of ^32 P/cAMP formed in the absence of medullary membrane is determined (blank). The blank value is subtracted from all experimental data. The compound is tested for its effect on basal adenylate cyclase activity and/or on vasopressin stimulated activity. Each determination is carried out in triplicate. The Ka value is derived from a Lineweaver-Burke plot. Rel. Vmax =(Vmax drug/Vmax vasopressin)×100. Ki =I/[(Ka'/Ka)-1] where I is the concentration of the antagonist, and Ka' and Ka are the concentrations of vasopressin required to give half-maximal activity of adenylate cyclase in the presence and absence of antagonist, respectively.

Assay [2] deals with T1, vasopressin receptors (V2 -receptors) (Rattus norvegicus, UniProt Q00788).
T1 construct: in vivo, in the hydropenic rat or the hydropenic monkey; from tissue; host or cells: whole animal (male hydropenic rat); renal receptors in situ
Kind of assay: Hydropenic rat protocol (anti-ADH activity in vivo). The note with it: estimated dose of peptide delivered ip which reduces Uosm from hydropenic levels to 300 mOsmoles/kg H2O. The method, then: as §1
Food and water are removed from male rats approximately 18 hours prior to testing. Animals are housed 4 per metabolism cage. At 0 hour, the test compound is administered intraperitoneally to the test group and an equivalent volume of vehicle is administered to both control groups (fasted and non-fasted). Urine volume and osmolality are measured every hour for 4 hours. Test values are recorded as ml of urine excreted (cumulative), mEq/rat electrolyte excreted, mg/rat urea excreted, and osmolality in milli-Osmoles/kg H2 O. A […] is used to determine significance. ED300 is defined as the dose of compound (μg/kg) required to lower urine osmolality to 300 m-Osmoles/kg. ED500 is defined as the dose of compound (μg/kg) required to lower urine osmolality to 500 m-Osmoles/kg. The hydropenic monkey protocol is similar.

The target of assay [3] is T2, vasopressin receptors (^3 H-vasopressin binding) (Sus scrofa, UniProt P32307).
T2 construct: average KD value determined on 3 preparations of hog kidney membranes; from tissue; host or cells: hog kidney medullary membranes
Kind of assay: Binding assay, ^3 H-vasopressin, hog kidney membranes. Also on record: species or system Pig. The note with it: for Kb: KB = IC50/(1+L/KD), ^3 H-vasopressin binding, hog kidney membranes, read-out: anti-ADH activity in vitro (Pig) KB. How it is done:
as §1
Test Procedure for Binding Assay:
In each experiment, the amount of ^3 H-vasopressin bound in the absence and in the presence of an excess of vasopressin (7.5×10^-6 M) is measured in triplicate. These values represent total and non-specific binding, respectively. The KB of a compound is derived from the equation for competitive inhibition: KB =IC50 /(1+L/KD), where IC50 is the concentration required for 50% inhibition of specific ^3 H-vasopressin binding, L is the concentration of the ligand, and KD is the dissociation constant of ^3 H-vasopressin (KD =3.6×10^-9 M; 1 SD=0.4×10^-9 M). This is the average KD value determined on 3 preparations of hog kidney membranes.

For assay [4], the system named is vasopressin receptors (V2 -receptors). Description: Conscious hydropenic squirrel monkey test (anti-ADH activity). Format: in vivo.
Description: Food and water are removed from male rats approximately 18 hours prior to testing. Animals are housed 4 per metabolism cage. At 0 hour, the test compound is administered intraperitoneally to the test group and an equivalent volume of vehicle is administered to both control groups (fasted and non-fasted). Urine volume and osmolality are measured every hour for 4 hours. Test values are recorded as ml of urine excreted (cumulative), mEq/rat electrolyte excreted, mg/rat urea excreted, and osmolality in milli-Osmoles/kg H2 O. A tolerance test is used to determine significance. […] The hydropenic monkey protocol is similar.
Assay [5] has as its target vascular pressor sites (V1 -receptors) (Rattus norvegicus, UniProt P30560). The source says: The second group of vasopressin receptor sites are the vascular pressor sites (V1 -receptors) located within the cardiovascular system itself.
For assay [6] the following is noted: reported by Barth; cited from earlier work.
For assay [7] the following is noted: reported by Barth; cited from earlier work. The source holds these as a separate data set.
The conditions of assay [8]: compared with the respective parent compound; cited from earlier work.
For assay [9] the following is noted: agonist series; cited from earlier work.

T2 sequence (P32307 whole entry): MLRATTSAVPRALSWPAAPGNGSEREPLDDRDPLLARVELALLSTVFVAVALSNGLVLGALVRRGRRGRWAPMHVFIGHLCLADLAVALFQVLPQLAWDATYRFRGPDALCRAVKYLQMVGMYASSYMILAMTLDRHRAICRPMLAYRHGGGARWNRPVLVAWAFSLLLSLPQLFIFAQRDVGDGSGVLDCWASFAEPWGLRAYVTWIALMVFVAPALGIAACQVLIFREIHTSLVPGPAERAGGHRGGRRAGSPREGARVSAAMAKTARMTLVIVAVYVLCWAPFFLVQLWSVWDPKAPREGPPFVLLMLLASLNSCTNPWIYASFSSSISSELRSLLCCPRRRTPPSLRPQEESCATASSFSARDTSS
vascular pressor sites (V1 -receptors), sequence (P30560 whole entry): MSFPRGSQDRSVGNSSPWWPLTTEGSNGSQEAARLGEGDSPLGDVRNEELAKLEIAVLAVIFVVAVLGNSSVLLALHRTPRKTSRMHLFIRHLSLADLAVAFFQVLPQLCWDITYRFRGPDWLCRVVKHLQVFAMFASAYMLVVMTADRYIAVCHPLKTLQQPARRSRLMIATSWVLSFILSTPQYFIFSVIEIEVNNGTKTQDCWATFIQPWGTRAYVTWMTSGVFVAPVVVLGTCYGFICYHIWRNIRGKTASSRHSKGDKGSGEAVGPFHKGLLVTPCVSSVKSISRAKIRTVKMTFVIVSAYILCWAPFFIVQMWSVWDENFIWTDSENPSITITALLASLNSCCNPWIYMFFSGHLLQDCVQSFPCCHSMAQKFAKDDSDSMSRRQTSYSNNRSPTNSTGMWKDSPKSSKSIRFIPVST
T1 sequence (Q00788 whole entry): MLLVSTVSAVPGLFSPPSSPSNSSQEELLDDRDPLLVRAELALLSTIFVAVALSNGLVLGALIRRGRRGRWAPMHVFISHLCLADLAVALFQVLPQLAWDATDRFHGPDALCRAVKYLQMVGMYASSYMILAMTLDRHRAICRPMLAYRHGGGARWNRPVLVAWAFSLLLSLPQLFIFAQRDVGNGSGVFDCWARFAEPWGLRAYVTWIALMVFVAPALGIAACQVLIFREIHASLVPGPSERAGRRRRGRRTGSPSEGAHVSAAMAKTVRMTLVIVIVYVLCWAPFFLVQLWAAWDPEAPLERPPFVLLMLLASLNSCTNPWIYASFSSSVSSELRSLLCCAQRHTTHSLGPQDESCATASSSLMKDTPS

With `CC(C)[C@@H]1NC(=O)[C@H](Cc2ccccc2)NC(=O)[C@@H](Cc2ccc(O)cc2)NC(=O)CC2(CCCCC2)SSC[C@@H](C(=O)N2CCC[C@H]2C(=O)N[C@@H](CCCNC(=N)N)C(=O)NCC(N)=O)NC(=O)[C@H](CC(N)=O)NC1=O` [Compound 1] ([dY]FVNCPRG-NH2; linker N-5 via X1), the Ki in [1] amounted to 30 nM. Besides, the “anti-ADH activity in vivo (Rat) ED300” value in assay [2] was 0.032 mg/kg. Regarding `CC(C)[C@@H]1NC(=O)[C@H](Cc2ccccc2)NC(=O)[C@@H](Cc2ccc(O)cc2)NC(=O)CC2(CCCCC2)SSC[C@@H](C(=O)N2CCC[C@H]2C(=O)N[C@@H](CCCNC(=N)N)C(N)=O)NC(=O)[C@H](CC(N)=O)NC1=O` [Compound 2, [1-(β-mercapto-β,β-cyclopentamethylenepropionic acid)-2-D-tyrosine-4-valine-8-arginine-9-desglycine]vasopressin] ([dY]FVNCPR-NH2; linker N-5 via X1), in assay [3], the Kb turned out to be 65 nM. The same measure, in the same setting: then `CC(C)[C@@H]1NC(=O)[C@H](Cc2ccccc2)NC(=O)[C@@H](Cc2ccc(O)cc2)NC(=O)CC2(CCCCC2)SSC[C@@H](C(=O)N2CCC[C@H]2C(=O)N[C@@H](CCCNC(=N)N)C(=O)O)NC(=O)[C@H](CC(N)=O)NC1=O` [Compound 3, [1-(β-mercapto-β,β-cyclopentamethylenepropionic acid)-2-D-tyrosine-4-valine-8-arginine-9-desglycinamide]vasopressin] ([dY]FVNCPR-OH; linker N-5 via X1), with 350 nM. For the compound `CCOc1ccc(C[C@H]2NC(=O)CC3(CCCCC3)SSC[C@@H](C(=O)N3CCC[C@H]3C(=O)N[C@@H](CCCNC(=N)N)C(=O)NCC(N)=O)NC(=O)[C@H](CC(N)=O)NC(=O)[C@H](C(C)C)NC(=O)[C@H](Cc3ccccc3)NC2=O)cc1` [Compound 4] ([dY](Et)FVNCPRG-NH2; linker N-5 via X1), the “ED300, dose required to decrease urine osmolality to 300M Osm/kg water” value in assay [4] is 33.1 nmol/kg. In addition, the Ki in [1] was found to be 5.9 nM. Besides, the “anti-ADH activity in vivo (Rat) ED300” value in assay [2] is 0.0099 mg/kg. On to `CCOc1ccc(C[C@H]2NC(=O)CC3(CCCCC3)SSC[C@@H](C(=O)N3CCC[C@H]3C(=O)N[C@@H](CCCNC(=N)N)C(N)=O)NC(=O)[C@H](CC(N)=O)NC(=O)[C@H](C(C)C)NC(=O)[C@H](Cc3ccccc3)NC2=O)cc1` [Compound 5, [1-(β-mercapto-β,β-cyclopentamethylenepropionicacid)-2-(O-ethyl-D-tyrosine)-4-valine-8-arginine-9-desglycine]vasopressin] ([dY](Et)FVNCPR-NH2; linker N-5 via X1), for which the results for the Kb in assay [5] and in assay [3] were 3.98 nM and 7.8 nM, respectively. Further, the “pA2, inhibition of vasopressin-induced vasoconstriction” value in assay [5] (in vivo) came out at 7.71.

Take `CCOc1ccc(C[C@H]2NC(=O)CC3(CCCCC3)SSC[C@@H](C(=O)N3CCC[C@H]3C(=O)N[C@@H](CCCNC(=N)N)C(N)=O)NC(=O)[C@H](CC(N)=O)NC(=O)[C@H](CC)NC(=O)[C@H](Cc3ccccc3)NC2=O)cc1` [Compound 6] ([dY](Et)F[Abu]NCPR-NH2; linker N-5 via X1): the Kb in assay [3] worked out at 18 nM. Turning to `CCCNC(=O)[C@H](CCCNC(=N)N)NC(=O)[C@@H]1CCCN1C(=O)[C@@H]1CSSC2(CCCCC2)CC(=O)N[C@H](CC(C)C)C(=O)N[C@@H](Cc2ccccc2)C(=O)N[C@@H](C(C)C)C(=O)N[C@@H](CC(N)=O)C(=O)N1` [Example 4] ([dL]FVNCPR-NHPr; linker N-5 via X1), the inhibition at 10 µM in assay [3] (at 10^-5 M, read-out: Kbind, inhibition) stood at 12.1%. For des-glycinamide^9 -vasopressin, the CNS activity entry in assay [6] was “has CNS activity”. In assay [7], the “antidiuretic or uterotonic activity” value is “practically no”. The “activity of the parent compound retained” value in [8] is “little”. Regarding “des-lysine^8 -desglycinamide^9 -vasopressin”, the “activity of the parent compound retained” value in assay [8] is reported as “little”. Consider “desglycine^9 -oxytocin (CYIQNCPL; disulfide 1-6 (inferred); ends not checked; UniProt P01178 20-28, looked up, variant G9*) [literature agonist analog, B. Berde et al]”, for which, in assay [8], the “activity of the parent compound retained” value was “little”. Besides, in [9], the “effect on blood pressure compared with oxytocin” value is on record as “opposite effect”.
